Source: patent publication US20250134869A1, “Pyrrolo[2,3-d]pyrimidinyl, Pyrrolo[2,3-b]pyrazinyl and Pyrrolo[2,3-d]pyridinyl Acryla-mides” (Pfizer Inc, priority 2021, published 2025)
Where two headings read alike, the source gives them in different places.

Target: JAK3 enzyme (Homo sapiens (Human), UniProt P52333)
Assay: JAK Caliper Enzyme Assay at 4 μM or 1 mM ATP
Assay type: biochemical
Description: JAK Caliper Enzyme Assay at […] or 1 mM ATP
Test article was solubilized in dimethyl sulfoxide (DMSO) to a stock concentration of 30 mM. An 11-point half log dilution series was created in DMSO with a top concentration of 600 μM. […] The compound plates were diluted 1 to 60 resulting in a top final assay compound concentration of 10 μM and a 2% DMSO concentration.
Test article and assay controls were added to a 384-well plate. Reaction mixtures contained 20 mM HEPES, pH 7.4, 10 mM magnesium chloride, 0.01% bovine serum albumin (BSA), 0.0005% Tween […] or 1 mM ATP and […] peptide substrate. […] The assays were initiated by the addition 1 nM JAK3 enzyme and were incubated at room temperature 75 minutes for JAK3. Enzyme concentrations and incubation times were optimized for each new enzyme preps and were modified slightly over time to ensure 20%-30% phosphorylation. The assays were stopped with a final concentration of 10 mM EDTA, 0.1% Coating Reagent and 100 mM HEPES, pH=7.4. The assay plates were placed on a Caliper Life Science Lab Chip 3000 (LC3000) instrument, and each well was sampled using appropriate separation conditions to measure the unphosphorylated and phosphorylated peptide.

[1] = read-out: JAK3 (4 μM ATP) IC50, 4 μM ATP
[2] = read-out: JAK3 (1 mM ATP) IC50, 1 mM ATP

Sequence of JAK3 enzyme (P52333 whole entry, species assumed): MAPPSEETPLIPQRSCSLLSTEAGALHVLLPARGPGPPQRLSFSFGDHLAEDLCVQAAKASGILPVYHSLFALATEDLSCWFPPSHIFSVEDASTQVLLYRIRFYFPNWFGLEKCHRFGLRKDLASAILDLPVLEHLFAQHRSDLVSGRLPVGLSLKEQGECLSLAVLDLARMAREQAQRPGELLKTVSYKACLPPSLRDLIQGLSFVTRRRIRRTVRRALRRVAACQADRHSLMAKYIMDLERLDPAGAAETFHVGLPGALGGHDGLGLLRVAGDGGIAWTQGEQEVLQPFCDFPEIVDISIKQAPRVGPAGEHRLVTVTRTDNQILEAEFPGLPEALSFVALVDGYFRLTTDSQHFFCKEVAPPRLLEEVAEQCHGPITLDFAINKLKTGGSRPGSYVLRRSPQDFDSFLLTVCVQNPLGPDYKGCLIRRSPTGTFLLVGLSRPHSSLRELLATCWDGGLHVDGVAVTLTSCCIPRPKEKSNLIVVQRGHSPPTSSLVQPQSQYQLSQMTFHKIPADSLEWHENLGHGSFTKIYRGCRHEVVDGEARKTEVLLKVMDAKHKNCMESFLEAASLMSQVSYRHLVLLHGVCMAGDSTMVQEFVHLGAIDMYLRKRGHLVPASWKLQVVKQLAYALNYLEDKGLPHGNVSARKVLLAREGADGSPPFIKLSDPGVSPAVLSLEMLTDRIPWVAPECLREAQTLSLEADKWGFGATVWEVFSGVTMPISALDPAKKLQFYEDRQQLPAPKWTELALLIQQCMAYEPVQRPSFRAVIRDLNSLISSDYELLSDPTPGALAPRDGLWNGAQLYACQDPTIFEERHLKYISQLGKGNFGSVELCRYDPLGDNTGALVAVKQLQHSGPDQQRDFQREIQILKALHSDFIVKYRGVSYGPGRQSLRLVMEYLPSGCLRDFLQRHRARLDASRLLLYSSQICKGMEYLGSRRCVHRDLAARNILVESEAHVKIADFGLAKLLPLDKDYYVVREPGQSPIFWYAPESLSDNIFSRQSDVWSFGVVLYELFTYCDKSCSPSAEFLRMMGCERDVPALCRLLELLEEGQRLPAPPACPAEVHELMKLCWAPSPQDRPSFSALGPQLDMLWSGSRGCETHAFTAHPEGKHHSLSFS

SMILES | IC50 [1] | IC50 [2]
C=CC(=O)N1CCC[C@@H](Nc2ncnc3[nH]cc(CCO)c23)C1 [Example 55, (R)-1-(3-((5-(2-Hydroxyethyl)-7H-pyrrolo[2,3-d]pyrimidin-4-yl)amino)piperidin-1-yl)prop-2-en-1-one] | 2 nM | 203 nM
C=CC(=O)N1C[C@H](Nc2ncnc3[nH]ccc23)C[C@H](N(C)C)C1 [Example 57, 1-((3R,5S)-3-((7H-Pyrrolo[2,3-d]pyrimidin-4-yl)amino)-5-(dimethylamino)piperidin-1-yl)prop-2-en-1-one] | 1.4 nM | 361 nM
C=CC(=O)N1C[C@@H](C#N)C[C@@H](Nc2ncnc3[nH]ccc23)C1 [Example 58, (3S,5R)-5-((7H-pyrrolo[2,3-d]pyrimidin-4-yl)amino)-1-acryloylpiperidine-3-carbonitrile] | 2.5 nM | 361 nM
C=CC(=O)N1C[C@H](O)C[C@@H](Nc2ncnc3[nH]ccc23)C1 [Example 60, 1-((3R,5R)-3-((7H-Pyrrolo[2,3-d]pyrimidin-4-yl)amino)-5-hydroxypiperidin-1-yl)prop-2-en-1-one] | 4.2 nM | 603 nM
C=CC(=O)N1CCC[C@@H](Nc2ncnc3[nH]cc(CCC#N)c23)C1 [Example 62, 3-(4-{[(3R)-1-Acryloylpiperidin-3-yl]amino}-7H-pyrrolo[2,3-d]pyrimidin-5-yl)propanenitrile] | 9 nM | 650 nM
C=CC(=O)N1CCC[C@@H](Nc2nc(Nc3cccnc3)nc3[nH]ccc23)C1 [Example 63, 1-[(3R)-3-{[2-(Pyridin-3-ylamino)-7H-pyrrolo[2,3-d]pyrimidin-4-yl]amino}piperidin-1-yl]prop-2-en-1-one] | 9.1 nM | 672 nM
C=CC(=O)N1C[C@H](Nc2ncnc3[nH]ccc23)C[C@@H](OC)C1 [Example 77, 1-[(3R,5R)-3-Methoxy-5-(7H-pyrrolo[2,3-d]pyrimidin-4-ylamino)piperidin-1-yl]prop-2-en-1-one] | 15.5 nM | 2070 nM
O=C(/C=C/CF)N1CC[C@@H]2CCN(c3ncnc4[nH]ccc34)[C@@H]2C1 [Example 87, (2E)-4-fluoro-1-[(3aS,7aS)-1-(7H-pyrrolo[2,3-d]pyrimidin-4-yl)octahydro-6H-pyrrolo[2,3-c]pyrdin-6-yl]but-2-en-1-one] | 139 nM | > 10000 nM
C=CC(=O)N1C[C@H](Nc2ncnc3[nH]ccc23)C[C@@H](N(C)C)C1 [Example 88, 1-[(3R,5R)-3-(Dimethylamino)-5-(7H-pyrrolo[2,3-d]pyrimidin-4-ylamino)piperidin-1-yl]prop-2-en-1-one] | 18.2 nM | 3390 nM
C=C(F)C(=O)N1CCC[C@@H](Nc2ncnc3[nH]ccc23)C1 [Example 91, 2-fluoro-1-[(3R)-3-(7H-pyrrolo[2,3-d]pyrimidin-4-ylamino)piperidin-1-yl]prop-2-en-1-one] | 56.5 nM | 4650 nM
C/C=C/C(=O)N1CCC[C@@H](Nc2ncnc3[nH]ccc23)C1 [Example 95, (2E)-1-[(3R)-3-(7H-pyrrolo[2,3-d]pyrimidin-4-ylamino)piperidin-1-yl]but-2-en-1-one] | 2480 nM | > 1000 nM
COC(=O)C/C=C/C(=O)N1CCC[C@@H](Nc2ncnc3[nH]ccc23)C1 [Example 97, methyl (3E)-5-oxo-5-[(3R)-3-(7H-pyrrolo[2,3-d]pyrimidin-4-ylamino)piperidin-1-yl]pent-3-enoate] | 904 nM | > 10000 nM
CS/C=C/C(=O)N1CCC[C@@H](Nc2ncnc3[nH]ccc23)C1 [Example 98, (2E)-3-(methylsulfanyl)-1-[(3R)-3-(7H-pyrrolo[2,3-d]pyrimidin-4-ylamino)piperidin-1-yl]prop-2-en-1-one] | 2630 nM | > 10000 nM
CC/C=C(\C#N)C(=O)N1CCC[C@@H](Nc2ncnc3[nH]ccc23)C1 [Example 99, (2E)-2-{[(3R)-3-(7H-pyrrolo[2,3-d]pyrimidin-4-ylamino)piperidin-1-yl]carbonyl}pent-2-enenitrile] | 255 nM | > 10000 nM
O=C(/C=C\CO)N1CCC[C@@H](Nc2ncnc3[nH]ccc23)C1 [Example 100, (2Z)-4-hydroxy-1-[(3R)-3-(7H-pyrrolo[2,3-d]pyrimidin-4-ylamino)piperidin-1-yl]but-2-en-1-one] | 654 nM | > 10000 nM
N#CC(C(=O)N1CCC[C@@H](Nc2ncnc3[nH]ccc23)C1)=C1CCOCC1 [Example 101, 3-oxo-3-[(3R)-3-(7H-pyrrolo[2,3-d]pyrimidin-4-ylamino)piperidin-1-yl]-2-(tetrahydro-4H-pyran-4-ylidene)propanenitrile] | 881 nM | > 10000 nM

SMILES | IC50 [1] | IC50 [2]
C/C=C\C(=O)N1CCC[C@@H](Nc2ncnc3[nH]ccc23)C1 [Example 102, (2Z)-1-[(3R)-3-(7H-pyrrolo[2,3-d]pyrimidin-4-ylamino)piperidin-1-yl]but-2-en-1-one] | 353 nM | > 10000 nM
C=CC(=O)N1CCCC(Nc2ncnc3[nH]ccc23)C1 (centres unmarked) [Example 103, 1-[3-(7H-pyrrolo[2,3-d]pyrimidin-4-ylamino)piperidin-1-yl]prop-2-en-1-one] | 4.7 nM | –
C=CC(=O)N1CCC[C@H](Nc2ncnc3[nH]ccc23)C1 [Example 104, 1-[(3S)-3-(7H-pyrrolo[2,3-d]pyrimidin-4-ylamino)piperidin-1-yl]prop-2-en-1-one] | 64.5 nM | –
CN(C)C/C=C/C(=O)N1CCC[C@H](Nc2ncnc3[nH]ccc23)C1 [Example 106, (2E)-4-(dimethylamino)-1-[(3S)-3-(7H-pyrrolo[2,3-d]pyrimidin-4-ylamino)piperidin-1-yl]but-2-en-1-one] | 49.1 nM | –
O=C(/C=C/c1c[nH]cn1)N1CCC[C@@H](Nc2ncnc3[nH]ccc23)C1 [Example 107, (2E)-3-(1H-imidazol-4-yl)-1-[(3R)-3-(7H-pyrrolo[2,3-d]pyrimidin-4-ylamino)piperidin-1-yl]prop-2-en-1-one] | 1160 nM | –
COCCc1c[nH]c2ncnc(N[C@@H]3CCCN(C(=O)/C=C/CN(C)C)C3)c12 [Example 108, (2E)-4-(dimethylamino)-1-[(3R)-3-{[5-(2-methoxyethyl)-7H-pyrrolo[2,3-d]pyrimidin-4-yl]amino}pipendin-1-yl]but-2-en-1-one] | 528 nM | > 10000 nM
C/C=C/C(=O)N1CCC[C@@H](Nc2ncnc3[nH]cc(CCOC)c23)C1 [Example 109, (2E)-1-[(3R)-3-{[5-(2-methoxyethyl)-7H-pyrrolo[2,3-d]pyrimidin-4-yl]amino}pipendin-1-yl]but-2-en-1-one] | 2820 nM | –
C=C(C)C(=O)N1CCC[C@@H](Nc2ncnc3[nH]cc(CCOC)c23)C1 [Example 110, 1-[(3R)-3-{[5-(2-methoxyethyl)-7H-pyrrolo[2,3-d]pyrimidin-4-yl]amino}piperidin-1-yl]-2-methylprop-2-en-1-one] | 1430 nM | –
C=CC(=O)N1CC[C@H]2CCN(c3ncnc4[nH]cc(C(C)=O)c34)[C@H]2C1 [Example 111, 1-[(3aR,7aR)-1-(5-Acetyl-7H-pyrrolo[2,3-d]pyrimidin-4-yl)octahydro-6H-pyrrolo[2,3-c]pyridin-6-yl]prop-2-en-1-one] | 39.2 nM | 4740 nM
C=CC(=O)N1CC[C@@]2(C)CCN(c3ncnc4[nH]ccc34)[C@H]2C1 [Example 122, 1-((3aR,7aR)-3a-Methyl-1-(7H-pyrrolo[2,3-d]pyrimidin-4-yl)hexahydro-1H-pyrrolo[2,3-c]pyridin-6 (2H)-yl)prop-2-en-1-one] | 75.6 nM | > 10000 nM
C=CC(=O)N1C[C@H](Nc2ncnc3[nH]ccc23)CC[C@H]1CC [Example 124, 1-[(2R,5R)-2-Ethyl-5-(7H-pyrrolo[2,3-d]pyrimidin-4-ylamino)piperidin-1-yl]prop-2-en-1-one] | 265 nM | > 10000 nM
C=CC(=O)N1C[C@@H](Nc2ncnc3[nH]ccc23)CC[C@@H]1CC [Example 125, 1-[(2S,5S)-2-Ethyl-5-(7H-pyrrolo[2,3-d]pyrimidin-4-ylamino)piperidin-1-yl]prop-2-en-1-one] | 1420 nM | > 10000 nM
C=CC(=O)N1C[C@@H](Nc2ncnc3[nH]ccc23)[C@@H]2CC[C@H]1C2 [Example 126, 1-((1S,4S,5R)-4-(7H-pyrrolo[2,3-d]pyrimidin-4-ylamino)-2-azabicyclo[3.2.1]octan-2-yl)prop-2-en-1-one] | 602 nM | > 10000 nM
C=CC(=O)N1C[C@H](Nc2ncnc3[nH]ccc23)[C@H]2CC[C@@H]1C2 [Example 127, 1-((1R,4R,5S)-4-(7H-pyrrolo[2,3-d]pyrimidin-4-ylamino)-2-azabicyclo[3.2.1]octan-2-yl)prop-2-en-1-one] | 190 nM | > 10000 nM
C=CC(=O)N1CC[C@@H](C)[C@@H](N(C)c2ncnc3[nH]ccc23)C1 [Example 130, 1-{(3R,4R)-4-Methyl-3-[methyl(7H-pyrrolo[2,3-d]pyrimidin-4-yl)amino]piperidin-1-yl}prop-2-en-1-one] | 75.2 nM | –
C=CC(=O)N1CC[C@@H]2CN(c3ncnc4[nH]ccc34)[C@@H]2C1 [Example 131, 1-[(1S,6R)-8-(7H-Pyrrolo[2,3-d]pyrimidin-4-yl)-3,8-diazabicyclo[4.2.0]oct-3-yl]prop-2-en-1-one] | 988 nM | –
